Laboratory results reported in patent US20110135575A1, “METALLOPROTEIN MRI CONTRAST AGENTS AND RELATED METHODS” (Massachusetts Institute of Technology, priority 2007, published 2011).

Key:
BM3 protein = BM3 protein (Priestia megaterium, UniProt P14779); assay: biochemical
Source text: In another example, a spectroscopic assay based on analyte-induced absorbance shifts was employed to estimate binding affinities and ligand selectivity of the mutant proteins in the above Examples. […] This method allowed both an estimation of an analyte's dissociation constant and a determination of selectivity.

[1] = T1 relaxivity / T1-weighted images in the presence of melatonin; type: biochemical; settings: Example 3, FIGS. 8-9
[2] = T1 relaxivity by MRI in the presence of dopamine; settings: Example 3, FIGS. 8-9
Source text: To determine the extent of that the interaction between exchanging water molecules at the axial site and the heme iron atom promotes T1 relaxation in aqueous solutions, a spin echo MRI pulse sequence was used to measure the proton relaxation rate as a function of protein concentration in phosphate buffered saline solution (PBS); the slope of this relationship (T1 relaxivity, or r1) provided a standard measure of the strength of a contrast agent.
Samples (60-100 microliters) were arrayed into microtiter plates and placed in a 40-cm-bore Bruker (Billerica, Mass.) Avance 4.7 T MRI scanner, equipped with a 10 cm inner diameter birdcage resonator radiofrequency coil and 26 G/cm triple axis gradients. Unused wells of the microtiter plates were filled with phosphate buffered saline, and imaging was performed on a 2-mm slice through the sample. A T1-weighted spin echo pulse sequence was used; echo time (TE) was 10 ms, and repetition times (TR) ranged from 77 ms to 5 s. Data matrices of 512×128 points were acquired and zero-filled to 1024×512 points, where the second dimension corresponds to the phase encoding direction. Images were reconstructed and analyzed using custom routines running in Matlab. Relaxation rates and relaxivities reported here were calculated by exponential fitting to the image data.

Procedure for PC12 cells: PC12 cells were grown in suspension in F-12K medium supplemented with 15% horse serum and 2.5% fetal bovine serum (ATCC, Manassas, Va.). In preparation for DA release experiments, 50 mL cell cultures were incubated for one hour in medium supplemented with 1 mM DA and 1 mM ascorbic acid, pelleted and washed twice with Locke's buffer (154 mM NaCl, 5.6 mM KCl, 3.6 mM NaHCO3, 2.3 mM CaCl2, 5.6 mM D-glucose, and 5 mM HEPES, pH 7.4). Washed PC12 cell pellets were resuspended in 200 microliters of Locke's buffer, with or without 32 micromolar BM3h-B7 sensor and containing either 5.6 or 59.6 mM K^+ (the low K^+ condition was osmotically balanced with Na^+). After 30-60 minutes incubation at room temperature, cells were pelleted and the supernatant was imaged in an MRI scanner as described above.

Molecule | DA concentration by ELISA, stimulated cells (PC12 cells; K+-stimulated PC12 cells) [µM] | DA concentration by ELISA, control cells (PC12 cells; Na+ control PC12 cells) [µM] | Kd (BM3 protein) [µM] | T1 relaxivity response to melatonin [1] | relative T1 relaxivity response to DA versus 5-HT [2]
NCCc1ccc(O)c(O)c1 [dopamine] | 54 ± 9 | 13 ± 2 | ~1000 | – | –
NCCc1c[nH]c2ccc(O)cc12 [serotonin] | – | – | ~1000 | – | –
wild type BM3: wild type cytochrome P450-BM3 from Bacillus megaterium, provided by Frances Arnold's laboratory (protein, UniProt P14779 1-1049, looked up) Bifunctional cytochrome …: MTIKEMPQPKTFGELKNLPLLNTDKPVQALMKIADELGEIFKFEAPGRVTRYLSSQRLIKEACDESRFDKNLSQALKFVRDFAGDGLFTSWTHEKNWKKAHNILLPSFSQQAMKGYHAMMVDIAVQLVQKWERLNADEHIEVPEDMTRLTLDTIGLCGFNYRFNSFYRDQPHPFITSMVRALDEAMNKLQRANPDDPAYDENKRQFQEDIKVMNDLVDKIIADRKASGEQSDDLLTHMLNGKDPETGEPLDDENIRYQIITFLIAGHETTSGLLSFALYFLVKNPHVLQKAAEEAARVLVDPVPSYKQVKQLKYVGMVLNEALRLWPTAPAFSLYAKEDTVLGGEYPLEKGDELMVLIPQLHRDKTIWGDDVEEFRPERFENPSAIPQHAFKPFGNGQRACIGQQFALHEATLVLGMMLKHFDFEDHTNYELDIKETLTLKPEGFVVKAKSKKIPLGGIPSPSTEQSAKKVRKKAENAHNTPLLVLYGSNMGTAEGTARDLADIAMSKGFAPQVATLDSHAGNLPREGAVLIVTASYNGHPPDNAKQFVDWLDQASADEVKGVRYSVFGCGDKNWATTYQKVPAFIDETLAAKGAENIADRGEADASDDFEGTYEEWREHMWSDVAAYFNLDIENSEDNKSTLSLQFVDSAADMPLAKMHGAFSTNVVASKELQQPGSARSTRHLEIELPKEASYQEGDHLGVIPRNYEGIVNRVTARFGLDASQQIRLEAEEEKLAHLPLAKTVSVEELLQYVELQDPVTRTQLRAMAAKTVCPPHKVELEALLEKQAYKEQVLAKRLTMLELLEKYPACEMKFSEFIALLPSIRPRYYSISSSPRVDEKQASITVSVVSGEAWSGYGEYKGIASNYLAELQEGDTITCFISTPQSEFTLPKDPETPLIMVGPGTGVAPFRGFVQARKQLKEQGQSLGEAHLYFGCRSPHEDYLYQEELENAQSEGIITLHTAFSRMPNQPKTYVQHVMEQDGKKLIELLDQGAHFYICGDGSQMAPAVEATLMKSYADVHQVSEADARLWLQQLEEKGRYAKDVWAG | – | – | – | minimal response | greater response to DA
